In the NIST ThermoML archive (doi:10.1021/je300603d):

Assays:
[1] = 101 kPa, Liquid; for electrical conductivity: Alternating current cell with electrodes; for viscosity: Falling or rolling sphere viscometry; for mass density: Vibrating tube method
[2] = mn = molality of the nth substance listed, in mol/kg; conditions: 101 kPa, Liquid, m2 = 0; for electrical conductivity: Alternating current cell with electrodes; for viscosity: Falling or rolling sphere viscometry; for mass density: Vibrating tube method

CCCCn1cc[n+](C)c1.F[B-](F)(F)F [1-butyl-3-methylimidazolium tetrafluoroborate]
[1]
Conditions | electrical conductivity [S/m] | mass density [kg/m3] | viscosity [mPa·s]
238.15 K | 0.00095 | – | –
258.15 K | 0.0227 | – | –
278.15 K | 0.113 | 1216.3 | 384.5
288.15 K | – | 1209 | 197.7
298.15 K | 0.353 | 1201.8 | 112.3
308.15 K | – | 1194.6 | 68.89
318.15 K | 0.826 | 1187.6 | 45.36
328.15 K | – | 1180.6 | 31.49
338.15 K | 1.548 | 1173.6 | 21.99
348.15 K | – | 1166.7 | 16.54
358.15 K | 2.53 | 1159.9 | 12.84
378.15 K | 3.74 | – | –
398.15 K | 5.13 | – | –
418.15 K | 6.68 | – | –
438.15 K | 8.36 | – | –
458.15 K | 10.13 | – | –

CCCCn1cc[n+](C)c1.F[B-](F)(F)F [1-butyl-3-methylimidazolium tetrafluoroborate] + F[B-](F)(F)F.[Na+]
[2]
Conditions | electrical conductivity [S/m] | mass density [kg/m3] | viscosity [mPa·s]
238.15 K | 0.00095 | – | –
258.15 K | 0.0227 | – | –
278.15 K | 0.113 | 1216.3 | 384.5
288.15 K | – | 1209 | 197.7
298.15 K | 0.353 | 1201.8 | 112.3
308.15 K | – | 1194.6 | 68.89
318.15 K | 0.826 | 1187.6 | 45.36
328.15 K | – | 1180.6 | 31.49
338.15 K | 1.548 | 1173.6 | 21.99
348.15 K | – | 1166.7 | 16.54
358.15 K | 2.53 | 1159.9 | 12.84
378.15 K | 3.74 | – | –
398.15 K | 5.13 | – | –
418.15 K | 6.68 | – | –
438.15 K | 8.36 | – | –
458.15 K | 10.13 | – | –
